Data set [1] has as its system gastric acid secretion. The data set is classed as in vivo, rats. Particulars: for Inhibition of gastric acid secretion, percentage: rats. The source says:
The influence of the compounds of the invention on the gastric acid secretion was studied on rats weighing 170 to 260 g according to Shay [Gastroenterology, 5, 43 (1945)].

Data set [2] in a line: in vivo. Particulars: printed under the reference substance in Table III.
A short description of data set [3]: Acute toxicity. Particulars: mouse, in vivo; oral; mice weighing 18 to 22 g. How it is done: The acute toxicity of the pyrazolo[1,5-c]quinazoline derivatives of the general formula I were determined on mice weighing 18 to 22 g. The compounds were administered orally.
In data set [4] the test system is acetic acid writhing. The data set is described as follows: Acetic acid writhing test (analgesic activity). Particulars: for ED50: Mus musculus, read-out: ED50 p.o. How it is done: The analgesic activity was studied by means of the acetic acid writhing test on mice. After the intraperitoneal administration of 0.4 ml of 0.5 percent acetic acid, the writhing responses were counted between the 5 and 10 minutes. The writhing number was calculated as the percentage of the control value. The compounds tested were orally administered to the animals 1 hour prior to the treatment with acetic acid. […] Paracetamole [p-hydroxyacetanilide] and phenylbutazon [4-butyl-1,2-diphenylpyrazolidine-3,5-dione] were used as reference substance.
Background: An intraperitoneal irritant provokes the stretching counted in writhing tests.

Data set [5] has as its system small intestine. The data set is described as follows: Antiperistaltic effect (carbon suspension, small intestine). The data set is classed as in vivo, mice. Particulars: for ED50: Mus musculus, read-out: ED50 p.o. How it is done:
The antiperistaltic effect of the compounds of the invention was examined on groups of mice consisting of 10 animals. Each dosis of the compound to be tested was administered to one group, orally, 60 minutes prior to the administration of a 10 percent carbon suspension. 20 minutes after the administration of the carbon suspension, the animals were sacrificed and the length of the entire small intestine as well as that of the small intestine filled with carbon were determined. The reference substance used was papaverine [1-(3,4-dimethoxybenzyl)-6,7-dimethoxyisoquinoline].

The mark [6] stands for this setting: antiperistaltic effect, oral, 60 minutes prior to 10 percent carbon suspension, mice.

Read-outs that look alike come from different tables or passages of the source.

As for `CCCN(CCC)C(=O)C(CCC(=O)O)NC(=O)c1ccccc1` (racemic) [proglumide, D,L-4-benzamido-N,N-dipropylglutaramic acid, reference compound], the “Inhibition of gastric acid secretion, percentage” value (shortened to “Inhibition … percentage”) in data set [1] (200 mg/kg p.o.) is recorded as “about 20 percentage”. The same compound displayed a Therapeutic index in data set [1] (gastric acid secretion, p.o.) of 11.4. In data set [2], this compound had a 50% lethal dose (LD50) of 2780 mg/kg.

As for `O=[N+]([O-])c1cnn2cnc3ccccc3c12` [Example 1, 1-Nitropyrazolo[1,5-c]quinazoline], in data set [3], the LD50 is 2000 mg/kg. Besides, the ED50 in data set [4] (po) is 50 mg/kg; in data set [5] (setting [6]), 18 mg/kg. Also, the Therapeutic index in data set [4] (mouse, in vivo, po) is recorded as 40; in data set [5] (mouse, in vivo, po), 111.

The compound `Cc1nc2ccccc2c2c([N+](=O)[O-])cnn12` [Example 3, 1-Nitro-5-methylpyrazolo[1,5-c]quinazoline] came in with a 50% lethal dose (LD50) in data set [3] of 2000 mg/kg. Further, in data set [5] (setting [6]), the ED50 stood at 400 mg/kg. Further, in data set [5] (mouse, in vivo, po), the Therapeutic index was found to be 5.

`CC(=O)Nc1cnn2cnc3ccccc3c12` [Example 5, 1-Acetaminopyrazolo[1,5-c]quinazoline]: in data set [3], the LD50 stood at 2000 mg/kg. Moreover, the figures for the “Inhibition … percentage” value in data set [1] (70 mg/kg p.o.) and in data set [1] (100 mg/kg p.o.) were “about 50 percentage” and 93 percentage, respectively. For the same compound, the Therapeutic index is on record as 28.6 in data set [1] (rat, in vivo, po) and 5 in data set [5] (mouse, in vivo, po). Moreover, the ED50 in data set [5] (setting [6]) worked out at 400 mg/kg.

Compound `CC1(C)Nc2ccccc2-c2c([N+](=O)[O-])cnn21` [Example 9, 1-Nitro-5,5-dimethyl-5,6-dihydropyrazolo[1,5-c]quinazoline] displayed an LD50 in data set [3] of 2000 mg/kg. For the same compound, the ED50 in data set [5] (setting [6]) is 400 mg/kg. This compound showed a Therapeutic index in data set [5] (mouse, in vivo, po) of 5.

Regarding `CC(=O)N1c2ccccc2-c2c([N+](=O)[O-])cnn2C1C` (stereo not drawn) [Example 27, 1-Nitro-5-methyl-6-acetyl-5,6-dihydropyrazolo[1,5-c]quinazoline], in data set [3], the LD50 was determined as 2000 mg/kg. In addition, the “Inhibition … percentage” value in data set [1] (50 mg/kg p.o.) is listed as 33 percentage; in data set [1] (62 mg/kg p.o.), “about 50 percentage”; in data set [1] (100 mg/kg p.o.), 82 percentage. Also, the Therapeutic index in data set [1] (rat, in vivo, po) is listed as 32.3; in data set [5] (mouse, in vivo, po) it was 40. In data set [5] (setting [6]), the median effective dose (ED50) stood at 50 mg/kg.

For the compound `CC(=O)N1c2ccccc2-c2c([N+](=O)[O-])cnn2C1(C)C` [Example 31, 1-Nitro-5,5-dimethyl-6-acetyl-5,6-dihydropyrazolo[1,5-c]quinazoline], in data set [3], the 50% lethal dose (LD50) was 2000 mg/kg. The ED50 in data set [5] (setting [6]) was 50 mg/kg. In data set [5] (mouse, in vivo, po), the Therapeutic index was 40.

For the compound `CC(=O)Nc1cnn2c1-c1ccccc1NC2(C)C` [Example 33, 1-Acetamino-5,5-dimethyl-5,6-dihydropyrazolo[1,5-c]quinazoline], in data set [3], the LD50 came out at 2000 mg/kg. Further, in data set [5] (setting [6]), the median effective dose (ED50) came out at 45 mg/kg. In data set [5] (mouse, in vivo, po), this compound came in with a Therapeutic index of 45.

Regarding `CC(=O)Nc1cnn2c1-c1ccccc1N(C(C)=O)C2(C)C` [Example 34], the LD50 in data set [3] turned out to be 2000 mg/kg. For the same compound, the values for the ED50 in data set [4] (po) and in data set [5] (po) were 25 mg/kg and 60 mg/kg, respectively. For the same compound, the Therapeutic index in data set [4] (analgesic activity test, p.o.) came out at 80; in data set [5] (antiperistaltic effect, p.o.) it was 33.

`CC(=O)Nc1cnn2c1-c1ccccc1N(C(C)=O)C2C` (stereo not drawn) [Example 35, 1-Acetamino-5-methyl-6-acetyl-5,6-dihydropyrazolo[1,5-c]quinazoline] gave an LD50 in data set [3] of 2000 mg/kg. In data set [5] (setting [6]), the ED50 was found to be 145 mg/kg. Also, in data set [5] (mouse, in vivo, po), the Therapeutic index came out at 14.

`CC(=O)Nc1cnn2c(C)nc3ccccc3c12` [Example 36, 1-Acetamino-5-methylpyrazolo[1,5-c]quinazoline] registered a 50% lethal dose (LD50) in data set [3] of 1800 mg/kg. The results for the “Inhibition … percentage” value in data set [1] (50 mg/kg p.o.), in data set [1] (65 mg/kg p.o.) and in data set [1] (100 mg/kg p.o.) were 30 percentage, “about 50 percentage” and 73 percentage, respectively. Besides, the Therapeutic index in data set [1] (rat, in vivo, po) came to 27.7; in data set [5] (mouse, in vivo, po) it was 5. The ED50 in data set [5] (setting [6]) was found to be 360 mg/kg.

Turning to `CN/C(=N/CCSCc1nc[nH]c1C)NC#N` [cimetidine, 1-methyl-3-[2-(5-methylimidazol-4-yl-methylthio)ethyl]guanidine-2-carbonitrile, reference compound], the “Inhibition … percentage” value in data set [1] (50 mg/kg p.o.) came out at 45 percentage. The compound also registered a Therapeutic index in data set [1] (rat, in vivo, po) of 9.4. The LD50 in data set [2] worked out at 470 mg/kg.

As for `COc1ccc(Cc2nccc3cc(OC)c(OC)cc23)cc1OC` [papaverine, 1-(3,4-dimethoxybenzyl)-6,7-dimethoxyisoquinoline, reference compound], the ED50 in data set [5] (po) was 180 mg/kg. In data set [5] (antiperistaltic effect, p.o.), this compound came in with a Therapeutic index of 3.4.

In the case of `CC(=O)Nc1ccc(O)cc1` [paracetamole, p-hydroxyacetanilide, reference compound], in data set [4] (po), the 50% effective dose (ED50) worked out at 180 mg/kg. Moreover, the Therapeutic index in data set [4] (analgesic activity test, p.o.) was 2,8.

In the case of `CCCCC1C(=O)N(c2ccccc2)N(c2ccccc2)C1=O` [phenylbutazon, 4-butyl-1,2-diphenylpyrazolidine-3,5-dione, reference compound], the ED50 in data set [4] (po) was 60 mg/kg. Besides, in data set [4] (mouse, in vivo, po), the Therapeutic index is given as 16,6.

In general, LD50 refers to the dose expected to kill half of the subjects tested. Lower therefore signals a more toxic substance. For orientation: ED50 means the dose at which the effect has come halfway, by size or by number of responders.

The record behind these values is US4303660A, “Pyrazolo[1,5-c]quinazoline derivatives and analgesic compositions containing them” (priority 1979, dated 1981).
